According to US12410220B2, “Modulation of mammalian cell lineage by synthetic immodulins” (priority 2021, dated 2025):
Marks after values point to notes of the source that are not given here. Peptide text beside a SMILES is read from it.

Legend:
[1] = test system: HFF-1 human fibroblast cell line; test: Collagen-1 ELISA in HFF-1 dermal fibroblasts; type: cell-based; settings: peptide 2 uM, 72 hour incubation
Procedure: Immodulin peptides have potential untility in the field of cosmetics. HFF-1 human fibroblast cell line was obtained from the American Type Culture Collection (ATCC). Cells were grown in a T-75 flask in DMEM Medium containing 10% fetal bovine serum and penicillin-streptomycin at 37° C. in a humidified, 5% CO2 incubator. Cells (100 µl, 2,000 cells/well) were plated in a 96-well plate and incubated overnight at 37° C. in a humidified, 5% CO2 incubator. Next day, 10 µl/well of compounds were added (quadruplicate wells). After 72 hour incubation with the compound, supernatants were collected for Collagen-1 ELISA assay and cell viability was measured in a luminometer after the addition of 100 IL/well CellTiterGlo reagent (Promega Inc, Madison, WI) as recommended by the manufacturer. Collagen stimulating activity of immodulin peptides in HFF-1 dermal fibroblasts: Peptides were added to cells at 2 uM. COL1 immunoreactivity was measured in the supernatants of cultured cells by ELISA using a rabbit monoclonal anti-COL1 primary antibody (Abcam, Cambridge, MA). Control (buffer) value of immunoreactivity was set to 100.

[2] = Ferric iron-binding assay of biotinylated immodulin peptides; settings: N-terminally biotinylated peptide, 400 ng per well, 60 min room temperature; immX3AVD = 100
From the text: N-terminally biotinylated versions of the peptides listed below were used in ferric iron-binding assays involving either an Alexa488-labeled streptavidin protocol (Binding Assay 1) or FITC-NTA assay (Binding Assay 2). Fluorescence was standardized to binding with immX3AVD control peptide (100) and the average of multiple experiments using both protocols is shown. P values are shown relative to the control immX3AVD peptide (**<0.05). D-amino acid residues are underlined in the sequences and the extension tripeptide of immX peptides is shown in bold font. Binding Assay 1 was done as follows: NTA coated 96-well plates (G-Biosciences, St. Louis, MO) were charged with ferric chloride and contacted with equimolar biotinylated peptide: streptavidin-A488 complex (400 ng peptide per well) for 60 min at room temperature, washed with phosphate-buffered saline (PBS) and read at 525 nm in a fluorescence counter. Binding Assay 2 was done as follows: Streptavidin coated 96-well plates (G-Biosciences, St. Louis, MO) were contacted with 400 ng peptide per well in PBS buffer for 60 minutes at room temperature, washed in PBS, then contacted with FITC-NTA (TRC, Toronto, Canada) complexed with equimolar ferric chloride (10× molar equivalent per well) for 60 min at room temperature, washed with PBS and read at 525 nm in a fluorescence counter.

[3] = target: T1, AA111-228 DNA-binding domain of RXR-alpha (RXRa-DBD) (Homo sapiens, UniProt P19793); test: Experiment 4A binding to RXRa-DBD; settings: 1 ug/well RXRa-DBD; 800 ng/well SA488-labelled peptide, 60 min; background subtracted
T1 construct: purchased Abcam, Cambridge, MA
T1 sequence (P19793 111-228): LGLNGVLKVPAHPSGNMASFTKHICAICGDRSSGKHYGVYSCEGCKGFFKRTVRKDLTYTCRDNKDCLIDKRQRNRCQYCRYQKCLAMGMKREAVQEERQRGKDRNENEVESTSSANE
Procedure: Experiment 4A. Binding of immodulin peptides to AA111-228 DNA-binding domain of RXR-alpha (RXRa-DBD). 1 ug/well recombinant RXRa-DBD (Abcam, Cambridge, MA) was adsorbed to wells of a 96-well plate for 60 minutes at room temperature, then blocked with 200 uL 1% bovine serum albumin (BSA) in PBS buffer overnight. Plate was washed and 800 ng/well Streptavidin-Alexa 488 conjugate (SA488)-labelled immX peptide was added. The plate was incubated for 60 min at room temperature, washed and counted in a standard fluorometer (excitation/emission 485/525 nm). Background (buffer alone) was subtracted.

[4] = Experiment 4D binding to FITC-labelled hyaluronic acid; settings: biotinylated peptide 1 ug/well; 1 ug FITC-labelled hyaluronic acid, 90 minutes
Procedure: (§1) Streptavidin-coated 96-well plates (G-Biosciences, St. Louis, MO) were pre-treated with biotinylated peptides [see Example 1 for key] at 1 ug/well, at room temperature for 60 minutes. The plate was washed with PBS buffer and then 1 ug FITC-labelled heparin or hyaluronic acid in 100 uL PBS buffer was added per well (all tests in quadruplicate). Incubation proceeded for 90 minutes at room temperature, followed by two PBS washes. The plate was read in a standard laboratory fluorometer (488/525 nm exitation/[…]) and the counts normalized for immX3 peptide binding=100. Values statistically above background are shown in bold font. **p<0.05 versus immX3AVD.

[5] = Experiment 4D binding to FITC-labelled heparin; settings: biotinylated peptide 1 ug/well; 1 ug FITC-labelled heparin, 90 minutes
Procedure: as §1

[6] = test system: THP1-Dual monocytes; test: THP1-Dual differentiation assay, immX3 peptide plus helper or inhibitor molecule; type: cell-based, human; settings: immX3 peptide (330 nM) in all samples plus helper at the concentration given; immX3 with buffer = 100.0
Procedure: Mammalian cell differentiation assays using THP1-Dual monocytes reporter cell line (Invivogen Inc, San Diego, CA) seeded at 2×10e5 cells per well in 96-well plates and cultured at 37 degrees C. in RPMI-1640 growth medium plus 10% fetal bovine serum and 1% penicillin/streptomycin, then treated for 24 hours with either 100 ng/ml Phorbol 12-myristate 13-acetate (PMA protocol; Cayman Chemical Company, Ann Arbor, MI) or a mixture of IL-4 (100 ng/ml), GM-CSF (100 ng/ml), TNF-alpha (20 ng/ml) and ionomycin (200 ng/ml) (Cytokine protocol; Peprotech, Rocky Hill, NJ). Peptide (330 nM) was then added, and incubation continued for an additional 24 hours. Culture supernatants were then assayed for CCL22. Plates with adherent cells were washed with PBS and assayed for immunoreactivity of surface markers such as CD169, Clec9a, Clec12a or MHCII using fuorescent tag- or biotin-labeled anti-human antibodies purchased from Miltenyi Biotec (Auburn, CA) and a relevant secondary detection reagent, or by fluorescence counts.
The THP1-Dual cell differentiation assay was carried out as described above in Example 2, using immX3 peptide (330 nM) in all samples plus the indicated helper or inhibitor molecule. AU=arbitrary ELISA units. **p<0.01.

CSCC[C@H](NC(=O)[C@H](CO)NC(=O)[C@@H](NC(=O)[C@H](CCC(=O)O)NC(=O)[C@H](CS)NC(=O)[C@H](CCC(N)=O)NC(=O)[C@H](CCCNC(=N)N)NC(=O)[C@H](CO)NC(=O)[C@H](Cc1c[nH]cn1)NC(=O)[C@H](Cc1ccc(O)cc1)NC(=O)[C@H](Cc1ccccc1)NC(=O)CNC(=O)[C@H](CC(N)=O)NC(=O)[C@@H](N)CCCCN)[C@@H](C)O)C(=O)N[C@@H](CC(=O)O)C(=O)NCC(=O)N[C@@H](CCC(=O)O)C(=O)N[C@@H](C)C(=O)NCC(=O)N[C@@H](CC(C)C)C(=O)N[C@@H](CS)C(=O)N[C@@H](Cc1c[nH]c2ccccc12)C(=O)O [imm1] (H-KNGFYHSRQCETSMDGEAGLCW-OH; N-terminus and C-terminus assumed)
COL1 immunoreactivity in supernatants, control (buffer) set to 100 [1]: 98
Ferric iron binding, fluorescence standardized to immX3AVD control peptide (100), Avg ± SD [2]: 2.5 ± 1.6**
Fluorescence, binding to RXRa-DBD [3]: 670±85

CSCC[C@H](NC(=O)[C@H](CCCCN)NC(=O)[C@H](CS)NC(=O)[C@H](CCC(N)=O)NC(=O)[C@H](CCCCN)NC(=O)[C@H](CC(C)C)NC(=O)[C@H](CC(N)=O)NC(=O)[C@H](Cc1ccc(O)cc1)NC(=O)[C@H](CC(C)C)NC(=O)CNC(=O)[C@H](Cc1c[nH]cn1)NC(=O)[C@@H](N)CCCCN)C(=O)N[C@@H](CO)C(=O)N[C@@H](CC(C)C)C(=O)N[C@@H](CC(N)=O)C(=O)NCC(=O)N[C@@H](CCC(N)=O)C(=O)N[C@@H](CCCNC(=N)N)C(=O)NCC(=O)N[C@@H](CCC(=O)O)C(=O)N[C@@H](CS)C(=O)N[C@@H](Cc1c[nH]c2ccccc12)C(=O)O [imm2]
COL1 immunoreactivity in supernatants, control (buffer) set to 100 [1]: 109
Hyaluronate binding, counts normalized for immX3 peptide binding=100 [4]: 3.1 ± 9.8
Heparin binding, counts normalized for immX3 peptide binding=100 [5]: 27.4 ± 22.9
Ferric iron binding, fluorescence standardized to immX3AVD control peptide (100), Avg ± SD [2]: 1.6 ± 0.8**
Fluorescence, binding to RXRa-DBD [3]: 2±38

GM-CSF: granulocyte-macrophage colony-stimulating factor; growth factor class
CD169 (AU) [6]: 147.0 ± 15.3** AU

Hyaluronic acid [reference compound]
CD169 (AU) [6]: 110.5 ± 10.2 AU

Leptin: Growth factor class
CD169 (AU) [6]: 103.3 ± 11.6 AU

Transferrin: Fe-binding protein
CD169 (AU) [6]: 126.8 ± 9.3** AU

B1: CSF1: colony stimulating factor 1; growth factor class (protein, UniProt P09603 33-554, looked up)
Macrophage colony-stimulating …: EEVSEYCSHMIGSGHLQSLQRLIDSQMETSCQITFEFVDQEQLKDPVCYLKKAFLLVQDIMEDTMRFRDNTPNAIAIVQLQELSLRLKSCFTKDYEEHDKACVRTFYETPLQLLEKVKNVFNETKNLLDKDWNIFSKNCNNSFAECSSQDVVTKPDCNCLYPKAIPSSDPASVSPHQPLAPSMAPVAGLTWEDSEGTEGSSLLPGEQPLHTVDPGSAKQRPPRSTCQSFEPPETPVVKDSTIGGSPQPRPSVGAFNPGMEDILDSAMGTNWVPEEASGEASEIPVPQGTELSPSRPGGGSMQTEPARPSNFLSASSPLPASAKGQQPADVTGTALPRVGPVRPTGQDWNHTPQKTDHPSALLRDPPEPGSPRISSLRPQGLSNPSTLSAQPQLSRSHSSGSVLPLGELEGRRSTRDRRSPAEPEGGPASEGAARPLPRFNSVPLTDTGHERQSEGSFSPQLQESVFHLLVPSVILVLLAVGGLLFYRWRRRSHQEPQRADSPLEQPEGSPLTQDDRQVELPV
CD169 (AU) [6]: 108.0 ± 32.3 AU
